From ChEMBL document CHEMBL1201862, “PubChem BioAssay data set” (2004)
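Cultured in 96-well plates, cells were exposed to test compound for 48 hours across five concentrations. GI50 marks 50% less growth.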 Active and inactive are the calls of the source. No stated cut-off is given here; in the data, active = GI50 up to about 1.1 µM and inactive = higher.

How the values were obtained:
Assay in all cases: NCI anticancer screen, dose series, 48 h
[1] = test system: SN12C
[2] = test system: HCT-116
[3] = test system: SNB-19
[4] = test system: CCRF-CEM
[5] = test system: RXF 393
[6] = test system: UO-31
[7] = test system: ACHN
[8] = test system: SR
[9] = test system: MDA-MB-231
[10] = test system: Malme-3M
[11] = test system: NCI-H460
[12] = test system: SF-539
[13] = test system: SF-268
[14] = test system: UACC-62
[15] = test system: NCI-H226
[16] = test system: A549
[17] = test system: SK-MEL-28
[18] = test system: 786-0
[19] = test system: MOLT-4
[20] = test system: RPMI-8226
[21] = test system: UACC-257
[22] = test system: HT-29
[23] = test system: U-251
[24] = test system: M14
[25] = test system: COLO 205
[26] = test system: DU-145
[27] = test system: IGROV-1
[28] = test system: OVCAR-8
[29] = test system: HCT-15
[30] = test system: T47D
[31] = test system: A498
[32] = test system: NCI/ADR-RES
[33] = test system: OVCAR-5
[34] = test system: TK-10
[35] = test system: SF-295
[36] = test system: MCF7
[37] = test system: HOP-62
[38] = test system: KM12
[39] = test system: OVCAR-4
[40] = test system: SK-OV-3
[41] = test system: SK-MEL-5
[42] = test system: HCC 2998
[43] = test system: EKVX
[44] = test system: MDA-MB-435
[45] = test system: HOP-92
[46] = test system: K562
[47] = test system: SW-620
[48] = test system: NCI-H23
[49] = test system: Hs-578T
[50] = test system: SNB-75
[51] = test system: HL-60
[52] = test system: LOX IMVI
[53] = test system: BT-549
[54] = test system: OVCAR-3
[55] = test system: PC-3
[56] = test system: MDA-N
[57] = test system: NCI-H522
[58] = test system: CAKI-1
[59] = test system: SK-MEL-2

With `O=c1cc(CC(O)(C(F)(F)Cl)C(F)(F)Cl)[nH]n1-c1ccccc1` the GI50 [1] was > 100 µM (inactive), the GI50 [2] was > 100 µM (inactive) and the GI50 [3] was > 100 µM (inactive). The GI50 [4] was > 100 µM (inactive), the GI50 [5] was > 100 µM (inactive) and the GI50 [6] was 78.9 µM (inactive). The GI50 [7] was > 100 µM (inactive), the GI50 [8] was > 100 µM (inactive) and the GI50 [9] was > 100 µM (inactive). For the same compound, the GI50 [10] was > 100 µM (inactive), the GI50 [11] was > 100 µM (inactive) and the GI50 [12] was > 100 µM (inactive). The GI50 [13] was > 100 µM (inactive), the GI50 [14] was > 100 µM (inactive) and the GI50 [15] was 66.4 µM (inactive). For the same compound, the GI50 [16] was > 100 µM (inactive), the GI50 [17] was > 100 µM (inactive) and the GI50 [18] was > 100 µM (inactive). The GI50 [19] was > 100 µM (inactive), the GI50 [20] was > 100 µM (inactive) and the GI50 [21] was > 100 µM (inactive). For the same compound, the GI50 [22] was > 100 µM (inactive), the GI50 [23] was > 100 µM (inactive) and the GI50 [24] was > 100 µM (inactive). The GI50 [25] was > 100 µM (inactive), the GI50 [26] was > 100 µM (inactive) and the GI50 [27] was > 100 µM (inactive). The GI50 [28] was > 100 µM (inactive), the GI50 [29] was greater than 100 µM and the GI50 [30] was 52.6 µM (inactive). For the same compound, the GI50 [31] was > 100 µM (inactive), the GI50 [32] was > 100 µM (inactive) and the GI50 [33] was > 100 µM (inactive). The GI50 [34] was > 100 µM (inactive), the GI50 [35] was > 100 µM (inactive) and the GI50 [36] was > 100 µM (inactive). The GI50 [37] was > 100 µM (inactive), the GI50 [38] was > 100 µM (inactive) and the GI50 [39] was > 100 µM (inactive). The GI50 [40] was > 100 µM (inactive), the GI50 [41] was > 100 µM (inactive) and the GI50 [42] was > 100 µM (inactive). The GI50 [43] was > 100 µM (inactive), the GI50 [44] was > 100 µM (inactive) and the GI50 [45] was 20.7 µM (inactive). For the same compound, the GI50 [46] was 92.3 µM (inactive), the GI50 [47] was > 100 µM (inactive) and the GI50 [48] was > 100 µM (inactive). For the same compound, the GI50 [49] was 15 µM (inactive), the GI50 [50] was > 100 µM (inactive) and the GI50 [51] was > 100 µM (inactive). The GI50 [52] was > 100 µM (inactive).

With `CC1(C)C2CC3C(C)(C2)C31c1cc(Cl)ccc1N` (stereo unspecified) the GI50 [1] was 14.4 µM (inactive), the GI50 [2] was 2.23 µM (inactive) and the GI50 [3] was 18.9 µM (inactive). For the same compound, the GI50 [4] was 16 µM (inactive), the GI50 [5] was 10.3 µM (inactive) and the GI50 [6] was 13.9 µM (inactive). For the same compound, the GI50 [7] was 15.6 µM (inactive), the GI50 [8] was 6.79 µM (inactive) and the GI50 [9] was 16.2 µM (inactive). The GI50 [10] was 7.53 µM (inactive), the GI50 [53] was 15.5 µM (inactive) and the GI50 [11] was 15.1 µM (inactive). The GI50 [12] was 15.5 µM (inactive), the GI50 [54] was 16.7 µM (inactive) and the GI50 [13] was 13.8 µM (inactive). The GI50 [14] was 15.2 µM (inactive), the GI50 [15] was 17.8 µM (inactive) and the GI50 [16] was 11.9 µM (inactive). For the same compound, the GI50 [17] was 17.3 µM (inactive), the GI50 [55] was 13.8 µM (inactive) and the GI50 [18] was 15.3 µM (inactive). For the same compound, the GI50 [19] was 8.36 µM (inactive), the GI50 [20] was 13 µM (inactive) and the GI50 [21] was 13.4 µM (inactive). The GI50 [22] was 14.5 µM (inactive), the GI50 [23] was 15.2 µM (inactive) and the GI50 [24] was 12.4 µM (inactive). For the same compound, the GI50 [25] was 19.1 µM (inactive), the GI50 [26] was 14 µM (inactive) and the GI50 [27] was 14.5 µM (inactive). The GI50 [28] was 15.1 µM (inactive), the GI50 [56] was 12.2 µM (inactive) and the GI50 [29] was 10.9 µM. For the same compound, the GI50 [30] was 12 µM (inactive), the GI50 [31] was 17.7 µM (inactive) and the GI50 [32] was 14.7 µM (inactive). For the same compound, the GI50 [33] was 16 µM (inactive), the GI50 [34] was 15.5 µM (inactive) and the GI50 [35] was 15.2 µM (inactive). For the same compound, the GI50 [36] was 13.4 µM (inactive), the GI50 [37] was 15.3 µM (inactive) and the GI50 [38] was 14.4 µM (inactive). The GI50 [39] was 15.2 µM (inactive), the GI50 [40] was 15.5 µM (inactive) and the GI50 [41] was 14.2 µM (inactive). The GI50 [42] was 15 µM (inactive), the GI50 [43] was 13.7 µM (inactive) and the GI50 [44] was 12.6 µM (inactive). The GI50 [45] was 13.3 µM (inactive), the GI50 [46] was 10.5 µM (inactive) and the GI50 [57] was 6.71 µM (inactive). The GI50 [47] was 15 µM (inactive), the GI50 [48] was 12.3 µM (inactive) and the GI50 [58] was 15.6 µM (inactive). For the same compound, the GI50 [50] was 11.9 µM (inactive), the GI50 [52] was 13.6 µM (inactive) and the GI50 [59] was 15 µM (inactive).

For `CCCCCC(=O)N[C@@H](c1ccco1)[C@@H](O)C(=O)O[C@H]1C[C@@]2(O)[C@@H](OC(=O)c3ccccc3)[C@@H]3[C@]4(OC(C)=O)CO[C@@H]4C[C@H](O)[C@@]3(C)C(=O)[C@H](OC(C)=O)C(=C1C)C2(C)C`, the GI50 [2] was < 0.0025 µM (active), the GI50 [3] was < 0.0025 µM (active) and the GI50 [4] was < 0.0025 µM (active). The GI50 [5] was < 0.0025 µM (active), the GI50 [6] was 0.0575 µM (active) and the GI50 [7] was 0.0406 µM (active). The GI50 [8] was < 0.0025 µM (active), the GI50 [11] was < 0.0025 µM (active) and the GI50 [13] was < 0.0025 µM (active). For the same compound, the GI50 [19] was < 0.0025 µM (active), the GI50 [20] was < 0.0025 µM (active) and the GI50 [22] was < 0.0025 µM (active). The GI50 [23] was < 0.0025 µM (active), the GI50 [25] was < 0.0025 µM (active) and the GI50 [28] was < 0.0025 µM (active). The GI50 [56] was < 0.0025 µM (active), the GI50 [29] was 0.0295 µM and the GI50 [32] was 1.75 µM (inactive). The GI50 [34] was 0.0908 µM (active), the GI50 [36] was < 0.0025 µM (active) and the GI50 [37] was < 0.0025 µM (active). For the same compound, the GI50 [38] was < 0.0025 µM (active), the GI50 [39] was 4.32 µM (inactive) and the GI50 [40] was < 0.0025 µM (active). For the same compound, the GI50 [41] was 0.025 µM (active), the GI50 [42] was < 0.0025 µM (active) and the GI50 [43] was > 25 µM (inactive). For the same compound, the GI50 [44] was < 0.0025 µM (active), the GI50 [45] was < 0.0025 µM (active) and the GI50 [57] was < 0.0025 µM (active). For the same compound, the GI50 [48] was < 0.0025 µM (active) and the GI50 [49] was < 0.0025 µM (active).
